# Laboratory results taken from patent US20250129055A1, “GLUCOSIDE DERIVATIVE, AND PREPARATION METHOD THEREFOR AND APPLICATION THEREOF” (BEIJING INCREASE INNOVATIVE DRUG CO., LTD., priority 2020, published 2025).
# Assays:
# [1] = test system: Alloxan diabetic mice; assay: Efficacy in Alloxan diabetes model mice; type: in vivo
# Procedure: Test Example 3 Research on efficacy of the compounds of the present invention in in vivo anti-Alloxan diabetes model mice
# Alloxan diabetes mice were used. Normal ICR mice (male, 22-24 g) were randomly divided into groups including normal group, model group (con), positive control group and test compound groups with four different doses (n=11), and the mice without injection of Alloxan were in a normal control group (n=10).
# (§1) Mice were administered with drugs by gavage.
# Single administration: Mice were fasted for 3 h, and then the fasting blood (0 min) was collected. Then the mice in each group were administered with drugs by gavage. After 1 h, they were administered with a glucose ([…]) solution. Blood was collected at 30 min, 60 min, 120 min, and 180 min after the glucose administration. The blood glucose level was measured using glucose oxidase-peroxidase method, and the area under the blood glucose curve was calculated.
# On the 6th day of continuous administration, under the condition of no fasting, blood samples were collected from mice before administration (0 h), 1 h, 2 h, 4 h, 8 h and 24 h after administration to measure blood glucose.
# On the 9th day of continuous administration, the mice were fasted for 1 h and then administered with drugs by gavage. An oral glucose tolerance test (OGTT) was performed 1 h after administration.
# On the 16th day of continuous administration, under the condition of no fasting, urine samples were collected from mice 1 h after administration to measure the concentration of urine glucose.
# On the 22nd day of continuous administration, the mice were fasted for 1 h and then administered with drugs by gavage, and blood samples were collected to measure the fasting blood glucose 1 h after administration.
# On the 28th day of continuous administration, under the condition of no fasting, blood samples were collected from mice 1 h after administration to measure the random blood glucose.
# On the 32nd day of continuous administration, under the condition of no fasting, blood samples were collected from mice to measure glycosylated hemoglobin (HbA1c).
# The data were expressed as mean±SEM (n=10-11). The comparison between multiple groups was performed by one-way analysis of variance, and the comparison between two groups was performed by Dunnett's t test. Statistical graphing was performed using Graphpad Prism software.
# [2] = test system: spontaneous type 2 diabetes mellitus db/db mice; assay: Pharmacodynamic effect on spontaneous type 2 diabetes mellitus db/db mice; type: in vivo; conditions: for AUC of blood glucose: 0-24 h; for Concentration of blood glucose 0 h / Concentration of blood glucose 1 h / Concentration of blood glucose 2 h / Concentration of blood glucose 4 h / Concentration of blood glucose 6 h / Concentration of blood glucose 8 h / Concentration of blood glucose 24 h: fasting; for Concentration of blood glucose 0 h: 0 h before administration; for HbA1c: 28th day; for Random blood glucose, the 22nd day (title: 28th day): column head 22nd day
# Procedure: Test example 4 Pharmacodynamic effect of the compounds of the present invention on spontaneous type 2 diabetes mellitus db/db mice
# Spontaneous type 2 diabetes mellitus db/db mice and the normal control db/m mice (male, 5-6 weeks old) were used. The db/db mice were randomly divide into […] based on random blood glucose, fasting blood glucose, percentage of blood glucose reduction at 40 min, blood triglycerides, total blood cholesterol, and body weight, which were model group (con), positive control group and three groups of test compound with different doses (n=10).
# as §1
# The mice were fasted for 2 h, and then the 0 h (fasting) blood samples were collected. Then the mice in each group were administered with drugs by gavage, and blood samples were collected at 1 h, 2 h, 4 h, 6 h, 8 h and 24 h after administration. The blood glucose level was measured using glucose oxidase-peroxidase method, and the area under the blood glucose curve was calculated. Moreover, urine samples were collected 2 h and 4 h after administration to determine the concentration of urine glucose.
# On the 15th day of continuous administration, before the mice were fasted, blood samples were collected to measure the random blood glucose. Then the mice were fasted and administered with the compounds, and after 2 h, blood samples were collected to measure the fasting blood glucose. […]
# The data were expressed as mean±SEM (n=10). The comparison between multiple groups was performed by one-way analysis of variance, and the comparison between two groups was performed by Dunnett's t test. Statistical graphing was performed using Graphpad Prism software.
# [3] = 0.5 mg/kg single administration
# [4] = 1.0 mg/kg single administration
# [5] = 2.0 mg/kg single administration
# [6] = 22nd day of continuous administration, 0.5, 1.0 and 2.0 mg/kg
smiles,measurement,setting,value
"CS[C@H]1O[C@@H](c2ccc(C)c(Cc3ccc4c(c3)OCCO4)c2)[C@H](O)[C@@H](O)[C@@H]1O (stereo in doubt) [Compound 2, 2-[3-(2,3-dihydro-1,4-benzodioxin-6-ylmethyl)-4-methylphenyl]-6-(methylthio)oxane-3,4,5-triol]",AUC of blood glucose,"[1]; 2.0 mg/kg, non-fasting, 6th day, 0-24 h",11326 ± 225.5 mg·h/dL
same,Concentration of blood glucose 1 h,"[1]; 2.0 mg/kg, non-fasting, 6th day, 1 h after administration",414.1 ± 18.3 mg/dL
same,Concentration of blood glucose 2 h,"[1]; 2.0 mg/kg, non-fasting, 6th day, 2 h after administration",460.2 ± 15.0 mg/dL
same,Concentration of blood glucose 4 h,"[1]; 2.0 mg/kg, non-fasting, 6th day, 4 h after administration",390.6 ± 28.2 mg/dL
same,Concentration of blood glucose 8 h,"[1]; 2.0 mg/kg, non-fasting, 6th day, 8 h after administration",434.0 ± 18.8 mg/dL
same,Concentration of blood glucose 24 h,"[1]; 2.0 mg/kg, non-fasting, 6th day, 24 h after administration",559.3 ± 10.4 mg/dL
same,Concentration of blood glucose 0 h,"[1]; 2.0 mg/kg, non-fasting, 6th day, before administration",473.0 ± 16.2 mg/dL
same,Concentration of blood glucose (random),"[1]; 2.0 mg/kg, random blood glucose on the 28th day",391.2 ± 26.0 mg/dL
same,Duration of hypoglycemic effect,"[1]; 6th day, dapagliflozin 2.0 mg/kg, Compound 2 0.25-2.0 mg/kg",still had a good hypoglycemic effect after 8-24 h
same,Concentration of urine glucose,"[1]; continuous administration for 16 days, 0.25-2.0 mg/kg, non-fasting, 1 h after administration",significantly increase
same,"Effect on body weight, food intake and water intake","[1]; continuous administration for 22 days, 0.25-2.0 mg/kg",no obvious effect
same,Blood glucose level and AUC after glucose administration,"[1]; single administration, 0.25, 0.5, 1.0 and 2.0 mg/kg",significantly lower
same,AUC of blood glucose,[2]; [3],7046 ± 253.0 mg·h/dL
same,Concentration of blood glucose 0 h,[2]; [3],486.3 ± 32.9 mg/dL
same,Concentration of blood glucose 1 h,[2]; [3],386.8 ± 22.3 mg/dL
same,Concentration of blood glucose 2 h,[2]; [3],362.7 ± 27.2 mg/dL
same,Concentration of blood glucose 4 h,[2]; [3],252.3 ± 9.7 mg/dL
same,Concentration of blood glucose 6 h,[2]; [3],169.3 ± 4.4 mg/dL
same,Concentration of blood glucose 8 h,[2]; [3],134.2 ± 4.6 mg/dL
same,Concentration of blood glucose 24 h,[2]; [3],477.7 ± 25.9 mg/dL
same,"Fasting blood glucose, the 15th day",[2]; 0.5 mg/kg,185.0 ± 13.6 mg/dL
same,"Random blood glucose, the 15th day",[2]; 0.5 mg/kg,307.9 ± 18.4 mg/dL
same,"Fasting blood glucose, the 22nd day",[2]; 0.5 mg/kg,193.8 ± 14.7 mg/dL
same,HbA1c,[2]; 0.5 mg/kg,4.7 ± 0.3 %
same,"Random blood glucose, the 22nd day (title: 28th day)",[2]; 0.5 mg/kg,272.4 ± 16.5 mg/dL
same,AUC of blood glucose,[2]; [4],6952 ± 295.8 mg·h/dL
same,Concentration of blood glucose 0 h,[2]; [4],552.2 ± 24.2 mg/dL
same,Concentration of blood glucose 1 h,[2]; [4],412.5 ± 13.1 mg/dL
same,Concentration of blood glucose 2 h,[2]; [4],362.3 ± 23.7 mg/dL
same,Concentration of blood glucose 4 h,[2]; [4],256.0 ± 10.1 mg/dL
same,Concentration of blood glucose 6 h,[2]; [4],161.8 ± 6.9 mg/dL
same,Concentration of blood glucose 8 h,[2]; [4],124.3 ± 5.8 mg/dL
same,Concentration of blood glucose 24 h,[2]; [4],470.7 ± 25.6 mg/dL
same,"Fasting blood glucose, the 15th day",[2]; 1.0 mg/kg,197.9 ± 11.2 mg/dL
same,"Random blood glucose, the 15th day",[2]; 1.0 mg/kg,322.7 ± 11.1 mg/dL
same,"Fasting blood glucose, the 22nd day",[2]; 1.0 mg/kg,204.1 ± 12.2 mg/dL
same,HbA1c,[2]; 1.0 mg/kg,4.8 ± 0.2 %
same,"Random blood glucose, the 22nd day (title: 28th day)",[2]; 1.0 mg/kg,258.4 ± 12.8 mg/dL
same,AUC of blood glucose,[2]; [5],6507 ± 269.6 mg·h/dL
same,Concentration of blood glucose 0 h,[2]; [5],519.3 ± 30.7 mg/dL
same,Concentration of blood glucose 1 h,[2]; [5],377.0 ± 9.0 mg/dL
same,Concentration of blood glucose 2 h,[2]; [5],309.7 ± 13.1 mg/dL
same,Concentration of blood glucose 4 h,[2]; [5],259.0 ± 14.9 mg/dL
same,Concentration of blood glucose 6 h,[2]; [5],153.3 ± 10.7 mg/dL
same,Concentration of blood glucose 8 h,[2]; [5],129.5 ± 12.8 mg/dL
same,Concentration of blood glucose 24 h,[2]; [5],427.0 ± 20.2 mg/dL
same,"Fasting blood glucose, the 15th day",[2]; 2.0 mg/kg,162.7 ± 12.1 mg/dL
same,"Random blood glucose, the 15th day",[2]; 2.0 mg/kg,240.4 ± 16.4 mg/dL
same,"Fasting blood glucose, the 22nd day",[2]; 2.0 mg/kg,159.5 ± 8.5 mg/dL
same,HbA1c,[2]; 2.0 mg/kg,4.0 ± 0.2 %
same,"Random blood glucose, the 22nd day (title: 28th day)",[2]; 2.0 mg/kg,194.7 ± 14.0 mg/dL
same,Blood triglycerides (TG) level,[2]; [6],significantly lower
same,Concentration of blood cholesterol,[2]; [6],no effect
same,Concentration of urine glucose,"[2]; 2 h after single administration, 0.5, 1.0 and 2.0 mg/kg",increased
same,Concentration of urine glucose,"[2]; 4 h after single administration, 0.5, 1.0 and 2.0 mg/kg",not increased
same,"Effect on body weight, food intake and water intake","[2]; continuous administration, 0.5, 1.0 and 2.0 mg/kg",no significant effect
same,Duration of blood glucose lowering,"[2]; single administration, 0.5, 1.0 and 2.0 mg/kg",up to 24 h
